Data published in patent US4906618A, “Prophylactic and therapeutic agent against swine dysentery” (Fujisawa Pharmaceutical Co., Ltd., priority 1986, dated 1990).
Where two headings read alike, the source gives them in different places.

How the values were obtained:
[1] = system: Treponema hyodysenteriae ATCC31212; assay: Therapeutic effect on experimentally induced swine dysentery in piglets; format: in vivo, piglets (Landace×Large White crossbred); conditions: solution in water; for (average) days of disappearance of fecal T. h: detection limit 10^2 CFU/g of feces
Protocol: Seven piglets, LW (Landace×Large White crossbred) male, were used. The initial body weight at the time of inoculation of infective materials ranged from 6.5 to 8.5 kg. Piglets were divided into 4 groups ([…] and 1 group of 1 head) and were maintained in stainless cages (90×90 cm) with raised plastic net floors at 28±2° C. Feed [Milk replacer for piglet] and water were supplied ad libitum except the duration of fasting. Infective materials used were prepared as follows. A total of 300 g of mucous haemorrhagic feces, large intestinal (from caecum through rectum) contents, and mucosa obtained from a clinically affected pig (3 days after onset of swine dysentery), which was previously inoculated into its caecum with pure culture of Treponema hyodysenteriae ATCC31212 (about 3×10^9 colony forming units/head) by surgical operation, were suspended, diluted finally 2.5 times with phosphate-bufferized saline and minced by biotron homogenizer (trademark, made by Biotrona Co., Ltd.).
For the purpose of infection, all piglets were inoculated individually with about 90 g of the infective materials after 22 hours' fasting.
Treatment were done once a day for 2 consecutive days from the 5th day post inoculation.

Treponema hyodysenteriae = assay: In vitro activity (MIC) against Treponema hyodysenteriae, agar dilution; format: cell-based; conditions: for MIC: Brachyspira hyodysenteriae, read-out: MIC (minimum inhibitory concentration); for MIC (minimum inhibitory concentration): 72 hours anaerobic, 37° C.
Protocol: The test organisms were grown anaerobically for 96 hours on Trypticase soy agar plate supplemented with 5% sheep blood. Appropriate amounts of physiological saline solution were poured into each agar plate to make a cell-suspension of test organism, which was finally adjusted at the cell density of 10^6 colony forming units (CFU)/ml. Freshly prepared Trypticase soy agar plates supplemented with 5% sheep blood which were containing serial two-fold dilutions of each of the compounds as mentioned below were inoculated with a loopful (about 5 μl) of the above-mentioned cell-suspension. The MIC (minimum inhibitory concentration) values were determined after 72 hours of anaerobical incubation at 37° C. in Gas Pak jars.

[2] = Growth promoting effect in pigs; format: in vivo, pigs (LWD strain); conditions: for Efficiency of feed utilization: 6 weeks, control 2.19; for Average body weight gain at the 6th week after the feeding: control 18.0; for Average final body weight at the 6th week after the starting of the feeding: control 28.0
Text: Five sets of 24 pigs (33 days-old, LWD strain) were used. Each 24 pigs were divided into 4 groups, i.e. 3 treatment groups and a control group. Each group consisted of 3 barrows and 3 female pigs. They were fed continuously with the feed described in Table 6.
The above basal ration I +

[3] = Acute toxicity test in mice; format: in vivo, ddy mice; conditions: single intravenous dose 20 mg (1 g/kg), five mice, 10 days of observation
Protocol: Further, in the acute toxicity test, each of five ddy mice (5-week old, male, 20 g in weight), was intraveneously given a single dose of WS-1627A, B, C or D 20 mg (lg/kg) and all survived.

[4] = Growth promoting effect in male broiler chickens; format: in vivo, male broiler chickens (chunky); conditions: for Average body weight gain at one week after the feeding: control 95.3; for Average final body weight at one week after the feeding: control 183.8; for Efficiency of feed utilization: one week, control 2.02
Text: 8-Days-old male broiler chickens (chunky) were divided into 3 groups i.e. 2 treatment groups and a control group, each group of which consisted of 10 chicks. They were fed continuously with the feed described in Table 8.
The above Basal ration II +

[5] = system: Treponema hyodysenteriae S5709; assay: Protective effect against experimental infection of Treponema hyodysenteriae in mice; format: in vivo, mice (ddy); conditions: 5 mg/kg, oral, once a day on first and second day after challenge, one week after infection
Protocol: 5 week-old mice (ddy, .male.) were used in these experiments. Mice were orally infected with 1.8×10^7 cells of Treponema hyodysenteriae S5709 grown for 96 hours on Trypticase soy agar plate supplemented with 5% sheep blood. On the first and second day after challenge, test compounds were given by oral administration once a day. One week after infection, the efficacy of the antibiotics on mice suffering from dysentery was determined as follows. Cecum contents from infected mice were suspended in 2 ml of saline solution, diluted twenty times with Trypticase soy medium supplemented with 5% sheep blood and cultured for T. hyodysenteriae on agar plate of Trypticase soy medium supplemented with 5% sheep blood at 37° C. for 72 hours in Gas Pak jars. The numbers of T. hyodysenteriae colony appeared on the plates were counted. Mice that gave no colony formations of T. hyodysenteriae were regarded as cured mice.

[6] = background statement; cited from earlier work
[7] = intramuscularly 10 mg/kg body weight × 2 day, 1 pig
[8] = orally 2.5 mg/kg body weight × 2 day, 2 pigs
[9] = Treatment group I, 10 ppm in feed
[10] = Treatment group II, 20 ppm in feed
[11] = Treatment group III, 40 ppm in feed
[12] = Treatment group II, 50 ppm in feed

## CC(=O)C1OC(Oc2ccc(C=C(C)C(=O)NC3C(O)C(O)C4OCOC4C3O)cc2O)C(O)C1O (stereo not shown) [WS-1627B, hygromycin]
[1]; [7]
  (average) days of recovery to normal stool: 1 days
  (average) days of disappearance of fecal T. h: 1 days
[1]; [8]
  (average) days of recovery to normal stool: 2 days
  (average) days of disappearance of fecal T. h: 2 days
Treponema hyodysenteriae; 72 h
  MIC: < 0.8 µg/mL
Treponema hyodysenteriae; ATCC31212, 72 h
  MIC: < 0.8 µg/mL
Treponema hyodysenteriae; statement in words
  antimicrobial activities against Treponema hyodysenteriae: strong antimicrobial activities
Treponema hyodysenteriae; strain S5709
  MIC (minimum inhibitory concentration): < 0.8 µg/mL
Treponema hyodysenteriae; strain TH81013
  MIC (minimum inhibitory concentration): < 0.8 µg/mL
[2]; [9]
  Efficiency of feed utilization: 2.05
  Average body weight gain at the 6th week after the feeding: 19.6 kg
  Average final body weight at the 6th week after the starting of the feeding: 29.6 kg
[2]; [10]
  Efficiency of feed utilization: 2.11
  Average body weight gain at the 6th week after the feeding: 19.2 kg
  Average final body weight at the 6th week after the starting of the feeding: 29.2 kg
[2]; [11]
  Efficiency of feed utilization: 2.09
  Average body weight gain at the 6th week after the feeding: 18.9 kg
  Average final body weight at the 6th week after the starting of the feeding: 28.9 kg
Solubility; acetone
  Solubility: Insoluble
Solubility; chloroform
  Solubility: Insoluble
Solubility; ethyl acetate
  Solubility: Insoluble
Solubility; methanol
  Solubility: Soluble
Solubility; water
  Solubility: Soluble
[3]
  survival: all survived
  toxic symptom: no toxic symptom was observed
[4]; [9]
  Average body weight gain at one week after the feeding: 116.5 g
  Average final body weight at one week after the feeding: 204.5 g
  Efficiency of feed utilization: 2.00
[4]; [12]
  Average body weight gain at one week after the feeding: 121 g
  Average final body weight at one week after the feeding: 209 g
  Efficiency of feed utilization: 1.67
[5]; listed as WS1627B
  cured/treated: 7/7

## CC(=O)C1OC(Oc2ccc(C=C(C)C(=O)NC3C(O)C(O)C4OCOC4C3O)cc2O)C(O)C1O (stereo not drawn) [WS-1627D, epi-hygromycin]
[5]; listed as WS1627D
  cured/treated: 4/7

## COC(=O)N/N=C/c1c[n+]([O-])c2ccccc2[n+]1[O-] [carbadox]
[6]
  mutagenicity: strong mutagenic substance
